From patent US4207326A, “Antimicrobial quaternary pyrazole derivatives” (Cilag-Chemie A.G., priority 1979, dated 1980) come the findings set out here.

One assay deals with C. albicans. The experiment in a line: Antimycotic activity: Minimum Inhibitory Concentration. It counts as cell-based, Candida albicans ATCC 10231. The conditions noted are these: for MIC: Candida albicans. The method, then:
(§1) The antimicrobial activity was determined by inoculation of the test microorganism into suitable growth media containing solutions of the compounds at concentrations of 100, 50, 10, 5, 1.0, 0.5 and 0.1 μg/ml. The reference antibiotics used were Gentamicin for the antibacterial tests and Amphotericin B for the antimycotic and antifungal tests. After incubation the antimicrobial activity was recorded as the Minimal Inhibitory Concentration (M.I.C.), i.e., the lowest concentration preventing macroscopically visible growth, for each test compound against each organism.
(§2) An initial solution of each formula (I) compound to be tested in sterile distilled water was prepared at a concentration of 1000 μg/ml. With appropriate dilutions using sterile distilled water, additional solutions were prepared at concentrations of 500, 100, 50, 10, 5 and 1 μg/ml.
The two species, C. albicans and C. tropicalis, were maintained on Sabouraud-Dextrose Agar (Oxoid CM41) and cultures for the preparation of the inoculum were incubated on this agar at 37° C. for 48 hours. 4.5 Ml volumes of citric acid-phosphate buffer pH 5.5 plus Yeast-Nitrogen Base (Difco 0392-15) were then inoculated from the agar cultures and incubated at 37° C. for 48 hours. 0.1 Ml aliquots of these cultures were then added to 100 ml volumes of sterile physiological saline to give the final inocula.
(b) For the tests on each of the C. albicans, C. tropicalis and C. neoformans strains and each of the test and reference compounds, a series of 8 tubes containing 4.5 ml volumes of citric acid-phosphate buffer pH 5.5 plus Yeast-Nitrogen Base (Difco 0392-15) were prepared. To 7 of these were added 0.5 ml volumes of the final solutions of the test compounds, giving final concentrations in the broths of 100, 50, 10, 5, 1.0, 0.5 and 0.1 μg/ml. To the eighth tube in each series was added 0.5 ml of the solvent used and diluted as for the preparation of the 1000 μg/ml solution of the compound. This tube was used as the growth control. The tubes were then inoculated with 0.1 ml aliquots of the inocula prepared as in "(b) Fungi" above. The tubes inoculated with the C. albicans and C. tropicalis were inoculated at 37° C. for 72 hours and the tubes inoculated with the C. neoformans straim were incubated at 30° C. for 72 hours. […] The tubes were then examined for evidence of growth as shown by turbidity of the medium and the lowest concentration of the test compound which prevented fungal growth was recorded as the Minimal Inhibitory Concentration. This test procedure was carried out on two separate days.

The test system of a further assay is P. verrucosa. The experiment in a line: Antifungal activity: Minimum Inhibitory Concentration. It counts as cell-based, Phialophore verrucosa NCPF 1119. The conditions noted are these: P. verrucosa, 27° C., one week; for MIC: Phialophora verrucosa, read-out: Minimum Inhibitory Concentration. How it is done: as §1, §2
(§3) The A. corymbifera, A. fumigatus, S. schenkii, T. rubrum, T. mentagrophytes, M. canis and P. verrucosa strains were all maintained on Sabouraud-Dextrose Agar (Oxoid CM 41) by incubating for 14 days at 27° C. To prepare the inocula 30 ml volumes of Sabouraud-Liquid medium (Oxoid CM 147) were inoculated from the agar cultures and incubated at 27° C. until heavy uniform growth resulted. The mycelial growth was then broken up by shaking with glass beads.
(§4) 1 Ml aliquots were removed from each of the cultures for the purpose of making viable counts and the cultures were then held at 4° C. The viable counts were made by preparing serial ten-fold dilutions of the cultures in sterile physiological saline and spreading on plates of Sabouraud-Dextrose Agar (Oxoid CM 41) which were then incubated at 27° C. for 14 days. When the viable counts had confirmed that each of the inocula contained approximately 10^6 colony forming units (C.F.U.) per ml the cultures were withdrawn from the refrigerator and used as the inocula for the tests.
(§5) (c) For the tests on each of the remaining seven strains and each of the test and reference compounds, a series of 8 tubes containing 4.5 ml volumes of Sabouraud-Liquid Medium (Oxoid CM 147) were prepared. To 7 of these were added 0.5 ml volumes of the final solutions of the test compounds, giving final concentrations in the broths of 100, 50, 10, 5, 1.0, 0.5 and 0.1 μg/ml. To the eighth tube in each series was added 0.5 ml of the solvent used and diluted as for the preparation of the 500 μg/ml solution of the compound. This tube was used as a growth control. The tubes were then inoculated with 0.1 ml aliquots of the inocula prepared as in "(b) Fungi" above. The tubes were then incubated at 27° C. with continuous shaking for a period of one week. The tubes were then examined for evidence of growth as shown by the presence of mycelial growth in the medium and the lowest concentration of the test compound which prevented fungal growth was recorded as the Minimal Inhibitory Concentration. This test procedure was carried out on two separate days.

For the next assay, the system named is P. mirabilis. The assay can be described thus: Antibacterial activity: Minimum Inhibitory Concentration. It counts as cell-based, Proteus mirabilis NCTC 8559. As to conditions: Proteus mirabilis, read-out: Minimum Inhibitory Concentration. How it is done:
as §1, §2
(§6) They were cultured and maintained on Tryptone Soy Agar (Oxoid CM 131), with the addition of 10% horse blood for the S. pyogenes.
(§7) To prepare the organisms as inocula for the test, slopes of this medium were streaked with the organisms and incubated at 37° C. for 24 hours. 4.5 Ml volumes of Brian-Heart Infusion Broth (Oxoid CM 225) were then inoculated with a platinum loop from the agar slope cultures and incubated for 24 hours at 37° C. The final inocula were then prepared by adding 0.1 ml aliquots of the Brain-Heart Infusion Broth cultures to 100 ml volumes of sterile physiological saline.
(§8) (a) For the test on each of the bacterial strains and each of the test and reference compounds, a series of 8 tubes containing 4.5 ml volumes of Brain-Heart Infusion Broth (Oxoid CM 225) were prepared. To 7 of these were added 0.5 ml volumes of the final solutions of the test compouns, giving final concentrations in the broths of 100, 50, 10, 5, 1.0, 0.5 and 0.1 μg/ml. To the eighth tube in each series was added 0.5 ml of the solvent used and diluted as for the preparation of the 1000 μg/ml solution of the compound. This tube was used as the growth control. The tubes were inoculated with 0.02 ml aliquots of the inocula prepared in accordance with "(a) Bacteria" above, and incubated at 37° C. for 24 hours. The tubes were then examined for evidence of bacterial growth as shown by turbidity of the medium and the lowest concentration of the test compound which prevented bacterial growth was recorded as the Minimal Inhibitory Concentration. This test procedure was carried out on two separate days.

The test system of another assay is S. schenkii. The assay can be described thus: Antifungal activity: Minimum Inhibitory Concentration. The conditions noted are these: for MIC: read-out: Minimum Inhibitory Concentration. It counts as cell-based, Sporotrichon schenkii NCPF 3182. How it is done: as §1, §2, §3, §4, §5
Another assay relates to E. coli. The assay can be described thus: Antibacterial activity: Minimum Inhibitory Concentration. As to conditions: Escherichia coli, 24 hours. Type of assay: cell-based, Escherichia coli ATCC 8739. How it is done: as §1, §2, §6, §7, §8
The subject of the next assay is A. corymbifera. The experiment in a line: Antifungal activity: Minimum Inhibitory Concentration. It counts as cell-based, Absidia corymbifera NCPF 2001. The conditions noted are these: for MIC: Lichtheimia corymbifera, read-out: Minimum Inhibitory Concentration. How it is done: as §1, §2
A. corymbifera NCPF 2001
as §3, §4, §5

The mark [1] stands for this setting: pH 5.5, C. albicans, Day 1, pH 5.5, 37° C., 72 hours, read-out: Minimum Inhibitory Concentrations.
Setting [2] is: pH 5.5, C. albicans, Day 2, pH 5.5, 37° C., 72 hours, read-out: Minimum Inhibitory Concentrations.
Setting [3] is: P. mirabilis, Day 1, 37° C., 24 hours.
Setting [4] is: P. mirabilis, Day 2, 37° C., 24 hours.
Setting [5] is: S. schenkii, Day 1, 27° C., one week.
The mark [6] stands for this setting: S. schenkii, Day 2, 27° C., one week.
Setting [7] is: A. corymbifera, Day 1, 27° C., one week.
Setting [8] is: A. corymbifera, Day 2, 27° C., one week.

Read-outs that look alike come from different tables or passages of the source.

In the case of `CCCCCCCCCCCC[n+]1c(C)cc(C)n1Cc1ccc(Cl)cc1Cl.[Br-]` [Example 6-B, 2-(2,4-dichlorobenzyl)-3,5-dimethyl-1-dodecyl-pyrazolium bromide], the MIC in the assay on C. albicans (setting [1]) turned out to be 5 µg/mL; with C. albicans (setting [2]), 5 µg/mL; in the assay with P. verrucosa (Day 1), 5 µg/mL; with P. verrucosa (Day 2), 5 µg/mL; in the assay on P. mirabilis (setting [3]) it was 50 µg/mL; with P. mirabilis (setting [4]), 50 µg/mL. In addition, the MIC in the assay with S. schenkii (setting [5]) was 1 µg/mL; in the assay on S. schenkii (setting [6]) it was 1 µg/mL; with E. coli (Day 1, 37° C.), 10 µg/mL; against E. coli (Day 2, 37° C.) it was 5 µg/mL; in the assay with A. corymbifera (setting [7]) it was 10 µg/mL; in the assay with A. corymbifera (setting [8]), 10 µg/mL.
Take `CCCCCCCCCCCCCCCC[n+]1c(C)cc(C)n1C.Cc1ccc(S(=O)(=O)[O-])cc1` [Example 6-C, 1-hexadecyl-2,3,5-trimethylpyrazolium p-toluene sulfonate]: the “Minimum Inhibitory Concentrations” value in the assay on C. albicans (C. albicans, Day 2, pH 5.5, 37° C., 72 hours) amounted to 5 µg/mL. Besides, the MIC came out at 5 µg/mL in the assay on C. albicans (pH 5.5, read-out: Minimum Inhibitory Concentrations); 50 µg/mL with P. mirabilis; 5 µg/mL with S. schenkii; 10 µg/mL in the assay with E. coli (Day 1, 37° C.); 10 µg/mL against E. coli (Day 2, 37° C.); 10 µg/mL in the assay with A. corymbifera. For the same compound, the results for the “Minimum Inhibitory Concentration” value in the assay on P. verrucosa (Day 2), in the assay with S. schenkii (setting [6]) and with A. corymbifera (setting [8]) were 5 µg/mL, 5 µg/mL and 10 µg/mL, respectively.
Take `CCCCCCCCCCCCCC[n+]1c(C)cc(C)n1Cc1ccc([N+](=O)[O-])cc1.[Br-]` [Example 6-D, 3,5-dimethyl-2(4-nitrobenzyl)-1-tetradecyl-pyrazolium bromide]: the MIC turned out to be 10 µg/mL in the assay with C. albicans (setting [1]); 5 µg/mL in the assay on C. albicans (setting [2]); 10 µg/mL with P. verrucosa (Day 1); 10 µg/mL in the assay with P. verrucosa (Day 2); 50 µg/mL in the assay with P. mirabilis (setting [3]); 50 µg/mL in the assay with P. mirabilis (setting [4]). In addition, the MIC in the assay with S. schenkii (setting [5]) came to 5 µg/mL; with S. schenkii (setting [6]) it was 5 µg/mL; against E. coli (Day 1, 37° C.), 50 µg/mL; against E. coli (Day 2, 37° C.), 100 µg/mL; with A. corymbifera (setting [7]), 50 µg/mL; in the assay with A. corymbifera (setting [8]) it was 50 µg/mL.
`CCCCCCCCCCCC[n+]1c(C)cc(C)n1Cc1ccc(Cl)cc1.[Br-]` [Example 6-E, 2-(p-chlorobenzyl)-3,5-dimethyl-1-dodecyl-pyrazolium bromide]: the MIC with C. albicans (setting [1]) was 1 µg/mL; in the assay on C. albicans (setting [2]), 5 µg/mL; in the assay with P. verrucosa (Day 1) it was 5 µg/mL; with P. verrucosa (Day 2), 5 µg/mL; with P. mirabilis (setting [3]) it was 50 µg/mL; in the assay on P. mirabilis (setting [4]) it was 50 µg/mL. Besides, the MIC in the assay with S. schenkii (setting [5]) stood at 5 µg/mL; with S. schenkii (setting [6]), 1 µg/mL; against E. coli (Day 1, 37° C.) it was 10 µg/mL; against E. coli (Day 2, 37° C.), 10 µg/mL; in the assay on A. corymbifera (setting [7]) it was 10 µg/mL; in the assay with A. corymbifera (setting [8]), 50 µg/mL.
For the compound `C=CCn1c(C)cc(C)[n+]1CCCCCCCCCCCCCCCC.[Br-]` [Example 7, 2-allyl-3,5-dimethyl-1-hexadecyl-pyrazoliumbromide], the MIC is 5 µg/mL in the assay with C. albicans (setting [1]); 1 µg/mL with C. albicans (setting [2]); 5 µg/mL with P. verrucosa (Day 1); 5 µg/mL in the assay on P. verrucosa (Day 2); 10 µg/mL with P. mirabilis (setting [3]); 50 µg/mL in the assay with P. mirabilis (setting [4]). The MIC in the assay with S. schenkii (setting [5]) was 5 µg/mL; with S. schenkii (setting [6]) it was 5 µg/mL; with E. coli (Day 1, 37° C.), 10 µg/mL; with E. coli (Day 2, 37° C.), 5 µg/mL; with A. corymbifera (setting [7]), 5 µg/mL; with A. corymbifera (setting [8]) it was 5 µg/mL.
